As a reminder, the IC50 is the concentration at which inhibition is half-maximal. A low value points to greater potency in that assay.

The source of these data is ChEMBL document CHEMBL5465560, “Selectivity Literature for EUbOPEN Chemogenomic Library” (2024).

Some results are limits rather than exact numbers.

Assay [1] deals with Cyclin-dependent kinase-like 3 (Homo sapiens) (UniProt Q8IVW4). Nature of the assay: Selectivity interaction (Ambit KINOMEscan and KiNATiv profiling in Jurkat cells) EUB0000090b CDKL3. The assay is classed as cell-based. Conditions: at 1 µM.
Sequence of Cyclin-dependent kinase-like 3 (Homo sapiens) (Q8IVW4 whole entry, looked up): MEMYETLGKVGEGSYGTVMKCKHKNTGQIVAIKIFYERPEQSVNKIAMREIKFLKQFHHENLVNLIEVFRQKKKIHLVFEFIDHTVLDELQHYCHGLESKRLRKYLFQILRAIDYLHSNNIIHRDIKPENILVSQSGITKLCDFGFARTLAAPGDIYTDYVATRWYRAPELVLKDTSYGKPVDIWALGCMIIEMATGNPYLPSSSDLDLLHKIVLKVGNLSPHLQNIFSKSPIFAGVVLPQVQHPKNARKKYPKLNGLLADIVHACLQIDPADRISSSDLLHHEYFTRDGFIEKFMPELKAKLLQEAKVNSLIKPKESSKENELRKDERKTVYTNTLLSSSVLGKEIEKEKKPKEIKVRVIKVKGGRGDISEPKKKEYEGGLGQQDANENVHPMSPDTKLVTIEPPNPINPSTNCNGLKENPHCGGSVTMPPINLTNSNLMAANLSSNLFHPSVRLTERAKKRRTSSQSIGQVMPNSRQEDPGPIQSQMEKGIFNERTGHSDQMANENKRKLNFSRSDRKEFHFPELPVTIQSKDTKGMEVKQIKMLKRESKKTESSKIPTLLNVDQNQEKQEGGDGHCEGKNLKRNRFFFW
In assay [2] the target is Serine/threonine-protein kinase VRK2 (Homo sapiens) (UniProt Q86Y07). Nature of the assay: Selectivity interaction (Ambit KINOMEscan and KiNATiv profiling in Jurkat cells) EUB0000090b VRK2. The assay is classed as cell-based. Conditions: at 1 µM.
The target in assay [3] is Angiopoietin-1 receptor (Homo sapiens) (UniProt Q02763). Nature of the assay: Selectivity interaction (KinomeScan (DiscoverX)) EUB0001079a TEK. Conditions: at 1 µM.
Assay [4] deals with Serine/threonine-protein kinase PAK 6 (Homo sapiens) (UniProt Q9NQU5). Nature of the assay: Selectivity interaction (KinomeScan (DiscoverX)) EUB0000092b PAK6. The following applies: at 10 µM.
Sequence of Serine/threonine-protein kinase PAK 6 (Homo sapiens) (Q9NQU5 whole entry, looked up): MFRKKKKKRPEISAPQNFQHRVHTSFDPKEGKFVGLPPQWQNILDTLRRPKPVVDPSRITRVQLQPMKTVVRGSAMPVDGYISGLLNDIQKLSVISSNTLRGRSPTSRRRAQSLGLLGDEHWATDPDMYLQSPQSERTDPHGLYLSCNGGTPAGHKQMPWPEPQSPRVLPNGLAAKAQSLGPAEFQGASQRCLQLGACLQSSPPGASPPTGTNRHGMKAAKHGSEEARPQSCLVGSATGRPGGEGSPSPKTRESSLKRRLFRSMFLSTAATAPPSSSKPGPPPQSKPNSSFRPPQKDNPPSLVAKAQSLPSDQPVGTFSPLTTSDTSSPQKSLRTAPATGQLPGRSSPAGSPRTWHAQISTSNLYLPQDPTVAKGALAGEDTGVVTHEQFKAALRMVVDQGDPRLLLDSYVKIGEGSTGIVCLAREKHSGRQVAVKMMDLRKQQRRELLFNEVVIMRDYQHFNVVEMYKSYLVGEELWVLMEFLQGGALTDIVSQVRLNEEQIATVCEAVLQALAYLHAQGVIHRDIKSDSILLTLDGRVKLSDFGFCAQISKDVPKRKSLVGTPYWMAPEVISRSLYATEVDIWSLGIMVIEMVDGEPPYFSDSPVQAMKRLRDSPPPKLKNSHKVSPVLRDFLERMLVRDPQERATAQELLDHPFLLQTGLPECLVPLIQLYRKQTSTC
In assay [5] the target is Calcium/calmodulin-dependent protein kinase kinase 2 (Homo sapiens) (UniProt Q96RR4). Nature of the assay: Selectivity interaction (KinomeScan (DiscoverX)) EUB0000092b CAMKK2. The following applies: at 10 µM.
The target in assay [6] is Ribosomal protein S6 kinase alpha-3 (Homo sapiens, UniProt P51812). The assay is described as follows: Selectivity interaction (KinomeScan (DiscoverX)) EUB0001049a RPS6KA3. The following applies: at 1 µM.
Sequence of Ribosomal protein S6 kinase alpha-3 (P51812 whole entry): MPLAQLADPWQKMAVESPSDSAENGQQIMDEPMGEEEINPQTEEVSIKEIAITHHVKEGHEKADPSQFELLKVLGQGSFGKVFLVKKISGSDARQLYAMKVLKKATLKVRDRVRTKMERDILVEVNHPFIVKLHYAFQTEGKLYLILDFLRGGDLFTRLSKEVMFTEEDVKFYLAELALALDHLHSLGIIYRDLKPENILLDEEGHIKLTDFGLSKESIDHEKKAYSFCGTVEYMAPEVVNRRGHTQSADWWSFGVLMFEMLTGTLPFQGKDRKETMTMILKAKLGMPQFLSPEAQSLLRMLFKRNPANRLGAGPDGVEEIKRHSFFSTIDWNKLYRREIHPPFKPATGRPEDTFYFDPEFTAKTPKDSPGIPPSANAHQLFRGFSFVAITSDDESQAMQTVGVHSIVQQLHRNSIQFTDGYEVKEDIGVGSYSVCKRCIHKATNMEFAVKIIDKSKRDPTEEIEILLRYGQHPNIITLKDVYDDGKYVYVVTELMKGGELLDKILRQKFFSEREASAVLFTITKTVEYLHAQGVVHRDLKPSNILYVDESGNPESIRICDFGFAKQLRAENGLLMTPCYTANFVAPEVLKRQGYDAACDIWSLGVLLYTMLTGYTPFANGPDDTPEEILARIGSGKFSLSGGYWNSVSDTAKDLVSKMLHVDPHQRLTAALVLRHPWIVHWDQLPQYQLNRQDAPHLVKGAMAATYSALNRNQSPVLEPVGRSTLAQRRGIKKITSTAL
The target in assay [7] is Activin receptor type-2B (Homo sapiens) (UniProt Q13705). Nature of the assay: Selectivity interaction (KinomeScan (DiscoverX)) EUB0001049a ACVR2B. Conditions: at 1 µM.
In assay [8] the target is Tyrosine-protein kinase JAK1 (Homo sapiens, UniProt P23458). Nature of the assay: Selectivity interaction (Kinase panel (Carna Biosciences)) EUB0001542aTs JAK1. Conditions: at 1 µM.
In assay [9] the target is Tyrosine-protein kinase Fes/Fps (Homo sapiens) (UniProt P07332). Nature of the assay: Selectivity interaction (KinomeScan (DiscoverX)) EUB0000045b FES.
Sequence of Tyrosine-protein kinase Fes/Fps (Homo sapiens) (P07332 whole entry): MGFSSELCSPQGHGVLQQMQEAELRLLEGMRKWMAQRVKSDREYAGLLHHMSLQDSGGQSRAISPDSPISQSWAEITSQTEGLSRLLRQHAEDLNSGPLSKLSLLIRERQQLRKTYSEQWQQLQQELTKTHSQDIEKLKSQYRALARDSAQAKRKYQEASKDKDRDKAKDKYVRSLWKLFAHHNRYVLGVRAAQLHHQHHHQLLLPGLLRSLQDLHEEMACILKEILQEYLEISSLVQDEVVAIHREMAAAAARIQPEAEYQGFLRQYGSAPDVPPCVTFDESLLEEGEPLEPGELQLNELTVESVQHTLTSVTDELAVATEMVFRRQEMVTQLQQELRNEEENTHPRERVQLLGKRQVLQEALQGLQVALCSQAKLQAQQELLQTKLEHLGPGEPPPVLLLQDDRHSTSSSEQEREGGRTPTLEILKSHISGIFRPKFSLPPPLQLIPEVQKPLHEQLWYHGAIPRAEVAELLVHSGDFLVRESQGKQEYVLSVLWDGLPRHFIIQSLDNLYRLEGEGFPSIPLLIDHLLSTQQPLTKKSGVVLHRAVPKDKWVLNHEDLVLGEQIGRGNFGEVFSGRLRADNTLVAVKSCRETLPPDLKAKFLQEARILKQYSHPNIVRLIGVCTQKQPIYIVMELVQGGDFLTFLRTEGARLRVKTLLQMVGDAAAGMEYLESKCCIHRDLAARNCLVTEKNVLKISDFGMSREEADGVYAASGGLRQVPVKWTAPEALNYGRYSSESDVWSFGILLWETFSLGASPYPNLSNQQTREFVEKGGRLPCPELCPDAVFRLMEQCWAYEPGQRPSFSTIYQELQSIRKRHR
For assay [10], the target named is T1, Tyrosine-protein kinase Mer (Homo sapiens) (UniProt Q12866).
T1 sequence (whole entry): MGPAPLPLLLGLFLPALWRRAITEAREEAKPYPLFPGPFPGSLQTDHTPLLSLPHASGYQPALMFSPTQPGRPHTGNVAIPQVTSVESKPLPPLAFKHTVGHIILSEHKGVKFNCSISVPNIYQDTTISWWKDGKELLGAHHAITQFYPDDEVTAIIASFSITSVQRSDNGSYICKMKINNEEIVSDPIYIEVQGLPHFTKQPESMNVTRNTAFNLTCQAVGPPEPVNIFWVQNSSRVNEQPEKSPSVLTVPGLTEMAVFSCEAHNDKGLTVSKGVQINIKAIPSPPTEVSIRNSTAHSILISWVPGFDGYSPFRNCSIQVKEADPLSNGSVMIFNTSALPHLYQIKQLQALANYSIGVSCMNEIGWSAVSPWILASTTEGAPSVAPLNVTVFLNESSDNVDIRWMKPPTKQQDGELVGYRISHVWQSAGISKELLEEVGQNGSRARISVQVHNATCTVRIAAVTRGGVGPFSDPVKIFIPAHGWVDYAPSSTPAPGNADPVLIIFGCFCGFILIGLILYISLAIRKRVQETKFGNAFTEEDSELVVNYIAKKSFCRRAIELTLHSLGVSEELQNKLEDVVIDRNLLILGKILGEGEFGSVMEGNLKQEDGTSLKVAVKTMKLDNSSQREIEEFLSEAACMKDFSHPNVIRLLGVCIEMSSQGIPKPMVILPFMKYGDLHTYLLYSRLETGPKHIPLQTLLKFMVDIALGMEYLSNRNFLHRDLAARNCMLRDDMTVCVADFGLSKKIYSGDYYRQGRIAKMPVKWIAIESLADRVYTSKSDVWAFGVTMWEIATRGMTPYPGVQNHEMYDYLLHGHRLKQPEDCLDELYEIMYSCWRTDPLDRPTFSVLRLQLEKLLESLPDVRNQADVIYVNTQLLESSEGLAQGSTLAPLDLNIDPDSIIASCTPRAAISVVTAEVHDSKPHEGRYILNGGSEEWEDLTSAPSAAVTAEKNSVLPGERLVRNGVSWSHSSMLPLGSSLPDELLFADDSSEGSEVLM
Nature of the assay: Selectivity interaction (Kinase panel (Z-LYTE Assay)) EUB0001632a MERTK. The following applies: at 10 µM.

A further assay concerns the target Aurora kinase B (Homo sapiens, UniProt Q96GD4). Nature of the assay: Selectivity interaction (SelectScreen profiling (Invitrogen)) EUB0000607a AURKB. Conditions: at 2 µM.
Assay [11] concerns the target Phosphatidylinositol 3-kinase catalytic subunit type 3 (Homo sapiens, UniProt Q8NEB9). The assay is described as follows: Selectivity interaction (Kinase panel (ADP-Glow assay)) EUB0000877a PIK3C3. A general note: ADP-Glo turns the ADP formed in a reaction into a luminescent signal.
In assay [12] the test system is Phosphatidylinositol 4,5-bisphosphate 3-kinase catalytic subunit alpha isoform (Homo sapiens), P42336 [E545K]. Conditions: at 10 µM.
Sequence of Phosphatidylinositol 4,5-bisphosphate 3-kinase catalytic subunit alpha isoform (Homo sapiens), P42336 [E545K] (P42336 whole entry E545K, canonical isoform): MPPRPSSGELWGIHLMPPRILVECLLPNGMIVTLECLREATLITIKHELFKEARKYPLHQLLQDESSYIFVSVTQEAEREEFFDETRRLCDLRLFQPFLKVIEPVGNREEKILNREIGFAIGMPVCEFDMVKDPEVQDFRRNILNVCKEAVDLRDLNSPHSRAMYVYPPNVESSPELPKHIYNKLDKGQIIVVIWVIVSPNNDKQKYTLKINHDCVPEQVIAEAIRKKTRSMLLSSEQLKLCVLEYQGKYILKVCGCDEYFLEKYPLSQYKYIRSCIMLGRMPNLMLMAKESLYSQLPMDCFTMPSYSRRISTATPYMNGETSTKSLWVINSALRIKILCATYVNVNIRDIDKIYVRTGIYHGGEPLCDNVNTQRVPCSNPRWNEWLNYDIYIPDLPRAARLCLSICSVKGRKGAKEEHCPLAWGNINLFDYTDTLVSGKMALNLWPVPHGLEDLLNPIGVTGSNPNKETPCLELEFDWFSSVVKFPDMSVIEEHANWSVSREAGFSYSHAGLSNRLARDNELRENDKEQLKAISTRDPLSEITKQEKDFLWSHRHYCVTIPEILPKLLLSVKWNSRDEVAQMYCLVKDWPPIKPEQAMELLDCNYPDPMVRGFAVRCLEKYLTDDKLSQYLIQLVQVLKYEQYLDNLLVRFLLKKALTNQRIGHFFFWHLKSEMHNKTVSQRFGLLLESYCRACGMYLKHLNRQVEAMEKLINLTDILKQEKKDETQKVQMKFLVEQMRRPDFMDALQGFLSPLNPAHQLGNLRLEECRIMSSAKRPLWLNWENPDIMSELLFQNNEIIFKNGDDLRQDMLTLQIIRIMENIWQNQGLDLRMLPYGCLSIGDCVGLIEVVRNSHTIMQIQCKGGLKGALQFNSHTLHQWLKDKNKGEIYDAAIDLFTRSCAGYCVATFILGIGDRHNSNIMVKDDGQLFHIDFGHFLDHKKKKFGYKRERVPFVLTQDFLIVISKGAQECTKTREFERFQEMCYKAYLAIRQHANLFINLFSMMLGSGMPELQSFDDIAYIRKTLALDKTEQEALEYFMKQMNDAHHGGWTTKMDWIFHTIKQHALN
In assay [13] the target is Serine/threonine-protein kinase N1 (Homo sapiens, UniProt Q16512). Nature of the assay: Selectivity interaction (ActivX KiNativ screen (ex vivo kinase selectivity in human PBMCs)) EUB0001619a PKN1. It is filed as cell-based. The following applies: PBMC, at 1 µM.
For assay [14], the target named is T2, Serine/threonine-protein kinase greatwall (Homo sapiens) (UniProt Q96GX5).
T2 sequence (whole entry): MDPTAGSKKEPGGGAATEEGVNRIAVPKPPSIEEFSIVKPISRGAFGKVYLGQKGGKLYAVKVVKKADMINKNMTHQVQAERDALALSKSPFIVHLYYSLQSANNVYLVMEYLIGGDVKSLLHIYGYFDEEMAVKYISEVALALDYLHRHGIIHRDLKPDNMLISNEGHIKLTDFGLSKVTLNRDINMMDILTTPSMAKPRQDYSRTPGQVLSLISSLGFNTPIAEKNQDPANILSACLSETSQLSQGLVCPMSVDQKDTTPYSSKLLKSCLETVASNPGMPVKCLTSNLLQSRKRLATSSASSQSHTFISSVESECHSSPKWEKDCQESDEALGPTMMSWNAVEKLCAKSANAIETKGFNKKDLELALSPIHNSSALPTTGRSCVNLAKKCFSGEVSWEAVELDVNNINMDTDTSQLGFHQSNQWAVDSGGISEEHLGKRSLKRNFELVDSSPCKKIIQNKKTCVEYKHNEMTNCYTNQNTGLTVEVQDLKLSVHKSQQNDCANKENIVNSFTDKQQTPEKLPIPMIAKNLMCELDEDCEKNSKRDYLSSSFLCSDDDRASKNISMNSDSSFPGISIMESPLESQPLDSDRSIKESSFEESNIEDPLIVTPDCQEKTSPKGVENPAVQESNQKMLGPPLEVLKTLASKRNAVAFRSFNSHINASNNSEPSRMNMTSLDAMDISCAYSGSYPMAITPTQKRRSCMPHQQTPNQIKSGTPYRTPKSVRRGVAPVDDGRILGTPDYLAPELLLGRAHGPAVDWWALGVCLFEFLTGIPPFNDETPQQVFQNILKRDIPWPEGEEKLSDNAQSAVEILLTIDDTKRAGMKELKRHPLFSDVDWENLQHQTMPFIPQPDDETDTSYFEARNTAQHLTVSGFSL
The assay is described as follows: Selectivity interaction (Kinase panel (KiNativ target engagement assay in Jurkat cells)) EUB0001635a MASTL. It is filed as cell-based. The following applies: at 1 µM.

Assay [15] deals with Dual specificity protein kinase CLK4 (Homo sapiens, UniProt Q9HAZ1). The assay is described as follows: Selectivity interaction (KinomeScan (DiscoverX)) EUB0000618a CLK4. Conditions: at 10 µM.
Sequence of Dual specificity protein kinase CLK4 (Q9HAZ1 whole entry, looked up): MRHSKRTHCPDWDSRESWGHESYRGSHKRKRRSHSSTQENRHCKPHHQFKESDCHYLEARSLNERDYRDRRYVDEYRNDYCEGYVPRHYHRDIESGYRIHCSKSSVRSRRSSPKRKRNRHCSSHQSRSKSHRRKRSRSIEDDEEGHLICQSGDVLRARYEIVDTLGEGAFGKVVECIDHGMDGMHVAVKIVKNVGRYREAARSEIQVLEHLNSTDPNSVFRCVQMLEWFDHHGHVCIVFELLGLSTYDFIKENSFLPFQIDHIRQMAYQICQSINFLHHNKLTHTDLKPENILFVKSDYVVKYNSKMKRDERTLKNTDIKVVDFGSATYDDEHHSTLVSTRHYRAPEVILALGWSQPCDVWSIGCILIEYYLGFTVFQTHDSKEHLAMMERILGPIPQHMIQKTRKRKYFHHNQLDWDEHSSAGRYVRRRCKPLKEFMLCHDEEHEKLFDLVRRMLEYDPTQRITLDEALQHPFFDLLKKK

Sequence of Aurora kinase B (Q96GD4 whole entry): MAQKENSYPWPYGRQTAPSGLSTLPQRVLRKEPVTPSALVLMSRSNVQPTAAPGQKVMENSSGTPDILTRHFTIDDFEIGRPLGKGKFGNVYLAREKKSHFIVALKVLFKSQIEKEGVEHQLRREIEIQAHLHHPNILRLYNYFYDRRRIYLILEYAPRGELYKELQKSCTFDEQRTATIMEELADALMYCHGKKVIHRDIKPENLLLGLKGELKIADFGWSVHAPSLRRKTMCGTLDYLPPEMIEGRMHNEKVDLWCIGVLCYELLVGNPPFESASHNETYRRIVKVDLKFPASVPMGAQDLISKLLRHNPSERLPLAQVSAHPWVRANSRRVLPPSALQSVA

As to `CN(C)C/C=C/C(=O)Nc1ccc(C(=O)N2CCCC(Nc3ncc(Cl)c(-c4c[nH]c5ccccc45)n3)C2)cc1` (configuration not stated), the % of control in [1] was 100%; in [2], 97%.

As for `Nc1cnc(N2CCc3cc(S(=O)(=O)Nc4c(F)cc(Cl)cc4F)cc(N4CCCC4=O)c32)nc1` [TP-020n], the % of control in assay [3] was found to be 78%.

In the case of `CCC(=O)N1CCN(c2ccc(-n3c(=O)ccc4cnc5ccc(-c6cnc7ccccc7c6)cc5c43)cc2C(F)(F)F)CC1`, the % of control in assay [4] came to 77%; in [5], 85%.

In the case of `COc1cc(Nc2nc(C)cc(-c3cnn4nc(OC)ccc34)n2)cc(C(F)(F)F)c1`, the % of control in assay [6] is 77%; in assay [7], 92%.

For the compound `Cn1cc(Nc2nccc(N3CC4CCC(C3)N4C(=O)[C@@H]3CC3(F)F)n2)cn1`, in [8], the % of inhibition came out at 101%.

Regarding `C=CC(=O)Nc1cc(-n2c(=O)ccc3cnc4ccc(-c5ccc(NS(C)(=O)=O)cc5)cc4c32)ccc1C`, the % of control worked out at 92% in assay [9] (at 1 µM) and 100% in assay [9] (at 10 µM).

For `Cn1cc(-n2cnc3c(NCc4nc5cc(Cl)c(Cl)cc5[nH]4)nc(N4CCOCC4)nc32)cn1`, the % of control in assay [10] was found to be 4.55%.

Consider `CNC(=O)Nc1ccc(-c2nc(N3CC4CCC(C3)O4)c3cnn(C4CCC5(CC4)OCCO5)c3n2)cc1`, for which the % of inhibition on Aurora kinase B was found to be 3%.

Take `CCC(=O)N1CC[C@H](Nc2ncnc3c2CN(c2cnc(OC)c(C(F)(F)F)c2)CC3)C1` [LENIOLISIB]: the IC50 in assay [11] was more than 9.1 µM.

In turn, `COCC(=O)NC/C=C/c1ccc2ncnc(Nc3ccc(Oc4ccc(C)nc4)c(C)c3)c2c1` [CP-724714] displayed a % of control in assay [12] of 100%.

Regarding `N#Cc1cccc(-c2c[nH]c3ncnc(N4CCOCC4)c23)c1`, the % of inhibition in assay [13] stood at 31%.

On to `C=CC(=O)Nc1ccc(C(=O)Nc2[nH]nc3c2CN(C(=O)N[C@H](CN(C)C)c2ccccc2)C3(C)C)cc1`, for which, in [14], the % of engagement came to 5.2%.

As to `O[C@H]1CC[C@H](Nc2ncc3nc(Nc4c(F)cc(F)cc4F)n([C@H]4CCOC4)c3n2)CC1`, in [15], the % of control came to 100%.
